Reference: a compilation of properties of binary mixtures (doi:10.1016/j.molliq.2018.12.032)

Assay: xn = mol fraction of the nth substance listed
Details: 101 kPa

C[P+](c1ccccc1)(c1ccccc1)c1ccccc1.[Br-] + OCCO
x1 = 0.25
Details | electrical conductivity [S/m] | viscosity [mPa·s]
293.15 K | 0.119 | 211
303.15 K | 0.153 | 136
313.15 K | 0.192 | 89.5
323.15 K | 0.238 | 60.6
333.15 K | 0.291 | 42
343.15 K | 0.352 | 29.7
353.15 K | 0.422 | 21.5

[Cl-].c1ccc(C[P+](c2ccccc2)(c2ccccc2)c2ccccc2)cc1 + OCCO
x1 = 0.083
Details | electrical conductivity [S/m] | viscosity [mPa·s]
303.15 K | 0.241 | 43.7
323.15 K | 0.365 | 24.2
333.15 K | 0.441 | 18.4
343.15 K | 0.527 | 14.3
353.15 K | 0.623 | 11.3

C[P+](c1ccccc1)(c1ccccc1)c1ccccc1.[Br-] + OCCOCCO
x2 = 0.8
Details | electrical conductivity [S/m] | viscosity [mPa·s]
293.15 K | 0.0618 | 141
303.15 K | 0.0986 | 103
313.15 K | 0.132 | 60.6
323.15 K | 0.18 | 38.7
333.15 K | 0.258 | 27
343.15 K | 0.294 | 20.4
353.15 K | 0.337 | 18.3

[Cl-].c1ccc(C[P+](c2ccccc2)(c2ccccc2)c2ccccc2)cc1 + OCCOCCO
x2 = 0.875
Details | electrical conductivity [S/m] | viscosity [mPa·s]
293.15 K | 0.0466 | –
303.15 K | 0.0706 | 102
323.15 K | 0.116 | 42.3
333.15 K | 0.147 | 30
343.15 K | 0.158 | 22.8
